Data from paper PMC6494957 (Frontiers in Microbiology, 2019).
Read-outs that look alike come from different tables or passages of the source.

Columns and labels:
P. aeruginosa ATCC 27853 = experiment: microbe, parasite or virus in culture; conditions: for MIC: Pseudomonas aeruginosa
Procedure: (§1) The MIC for ampicillin or gentamicin against each isolate was determined for each test to serve as an internal quality control. The MICs of isolates were determined by visual reading and using an EnSpire Multimode Plate Reader 2300 atA600nm.
(§2) Briefly, antimicrobial stock solutions for robenidine and PMBN were prepared at a concentration of 12.8 mg/ml in DMSO. […] A 1 μl aliquot of the first compound from each combination was dispensed along the abscissa (from row A to G) of the 96-well microplate, while the second compound was dispensed along the ordinate (from column 12 to column 3) using an electronic multichannel pipette followed by 89 μl of LB broth. Each well of the plate was inoculated with an aliquot of 10 μl bacterial suspension at a concentration of 1-5 × 10^6 colony forming units (CFU) per ml. Subsequently, the plate was incubated at 37°C for 24 h. The fractional inhibitory concentration index (FICI) described the results of the combinations, and was calculated utilizing the following formula:
(§3) DRI = MIC of drug alone/MIC of drug in combination

E. coli ATCC 11229 = experiment: microbe, parasite or virus in culture; conditions: for MIC: Escherichia coli
Procedure: as §1, §2, §3

[1] = system: A. calcoaceticus (human clinical isolate); experiment: microbe, parasite or virus in culture; conditions: for MIC: Acinetobacter calcoaceticus
Procedure: as §1, §2, §3

P. mirabilis ATCC 43071 = experiment: microbe, parasite or virus in culture; conditions: for MIC: Proteus mirabilis
Procedure: as §1, §2, §3

E. coli ATCC 25922 = experiment: microbe, parasite or virus in culture; conditions: for MIC: Escherichia coli
Procedure: as §1, §2, §3

K. pneumoniae ATCC 13883 = experiment: microbe, parasite or virus in culture; conditions: for MIC: Klebsiella pneumoniae
Procedure: as §1, §2, §3

A. baumannii ATCC 19606 = experiment: microbe, parasite or virus in culture; conditions: for MIC: Acinetobacter baumannii
Procedure: as §1, §2, §3

A. baumannii ATCC 12457 = experiment: microbe, parasite or virus in culture; conditions: for MIC: Acinetobacter baumannii
Procedure: as §1, §2, §3

HaCaT cell line = experiment: In vitro cytotoxicity, WST-1; type: cell-based; conditions: Homo sapiens, 10% FBS, read-out: IC50, single agent
Procedure: (§4) Cells were maintained in Dulbecco’s modified Eagle’s medium (DMEM) with 10% fetal bovine serum (FBS) and 1% PenStrep (100 U/mL Penicillin and 100 μg/mL Streptomycin) at 37°C with 5% CO2. Cells were serially passaged at ∼80% confluence ∼ every 4 days. Assays were performed in duplicate in 96 well plates seeded with ∼25,000 cells per well. […] Briefly, the antimicrobials were prepared by performing a twofold serial dilution at 100× of tested concentration in DMSO. Subsequently, a 1 μl aliquot of each concentration was transferred to a sterile 96-well plate containing fresh DMEM with either 10% FBS. After mixing four times, the media aliquots with different concentrations of antimicrobial were transferred to each well of the 96-well plate seeded with cells, using wells containing 1–2% DMSO only as control. To determine the effect of FBS on the cytotoxicity of each compound, DMEM with 40% FBS containing different concentrations of antimicrobial was prepared as described above. After 24 h of exposure, WST-1 reagent (Cell Proliferation Assay reagent, Roche) at a concentration of 10% was added to each well. Absorbance at A450 nm on a Multiskan Ascent 354 Spectrophotometer (Labsystems) was measured after 1 h of incubation. The IC50 value was determined for each compound against each cell line via non-linear regression (three parameters) using GraphPad Prism v6 software.

[2] = system: preformed biofilms of two clinical isolates of S. pseudintermedius; experiment: Antibiofilm susceptibility (MBEC device) and biofilm checkerboard; type: cell-based, Staphylococcus pseudintermedius; conditions: Gram-positive (S. pseudintermedius) biofilms; vs growth control
Procedure: Briefly, biofilms of P. aeruginosa PA01, two clinical isolates of P. aeruginosa isolates and two clinical isolates of S. pseudintermedius were formed by inoculating 150 μl of 10^7 CFU/ml of each bacterial suspension in the MBEC^TM device. The inoculated device was aerobically incubated on an orbital shaker at 37°C (OM11, Ratek Instruments Pty Ltd., Australia) for 24 h to produce equivalent (Uniform) biofilms on all pegs. […] Following antimicrobial challenge, the biofilms were rinsed twice with phosphate buffered saline (pH = 7) and disrupted via sonication (Soniclean, Model 160TD, Australia) for 10 min into the recovery medium. Viable cell counts were determined for recovered cells (colony-forming units per peg) after preparing a serial dilution and plating 10 μl in duplicates of each dilution onto plate count agar. Viable counts were then expressed as a percentage of the mean CFU of growth controls. MBEC was defined as the lowest concentration of antimicrobial agent that eradicates the biofilms recovered from the antimicrobial challenge.
Briefly, the MBEC^TM High-throughput assay system (MBEC^TM BioProducts, Innovotech, Canada) was used for the preparation of Gram-positive and Gram-negative biofilm producing bacteria as described above for antibiofilm susceptibility testing. […] Subsequently, the plate was incubated at 37°C for 24 h.

MDCK cell line = experiment: In vitro cytotoxicity, WST-1; type: cell-based, canine; conditions: Canis lupus familiaris, 10% FBS, read-out: IC50, single agent
Procedure: as §4

- MIC in combination EDTA:ROB (mM in parentheses) (P. aeruginosa ATCC 27853; P. aeruginosa ATCC 27853, EDTA component): 5 mM
- MIC in combination EDTA:ROB (P. aeruginosa ATCC 27853; P. aeruginosa ATCC 27853, concentration of the labelled component): 1900 µg/mL
- MIC (P. aeruginosa ATCC 27853; ATCC27853, read-out: MIC, single drug): 3800 µg/mL
- MIC (P. aeruginosa ATCC 27853; ATCC27853, read-out: MIC, single drug (mM in parentheses)): 10 mM
- MIC in combination EDTA:ROB (mM in parentheses) (E. coli ATCC 11229; E. coli ATCC 11229, EDTA component): 0.6 mM
- MIC in combination EDTA:ROB (E. coli ATCC 11229; E. coli ATCC 11229, concentration of the labelled component): 228 µg/mL
- MIC (E. coli ATCC 11229; ATCC11229, read-out: MIC, single drug): 950 µg/mL
- MIC (E. coli ATCC 11229; ATCC11229, read-out: MIC, single drug (mM in parentheses)): 2.5 mM
- MIC in combination EDTA:ROB (mM in parentheses) ([1]; A. calcoaceticus human clinical isolate, EDTA component): 0.6 mM
- MIC in combination EDTA:ROB ([1]; A. calcoaceticus human clinical isolate, concentration of the labelled component): 228 µg/mL
- MIC ([1]; read-out: MIC, single drug): 228 µg/mL
- MIC ([1]; read-out: MIC, single drug (mM in parentheses)): 0.6 mM
- MIC in combination EDTA:ROB (mM in parentheses) (P. mirabilis ATCC 43071; P. mirabilis ATCC 43071, EDTA component): 0.6 mM
- MIC in combination EDTA:ROB (P. mirabilis ATCC 43071; P. mirabilis ATCC 43071, concentration of the labelled component): 228 µg/mL
- MIC (P. mirabilis ATCC 43071; ATCC43071, read-out: MIC, single drug): 228 µg/mL
- MIC (P. mirabilis ATCC 43071; ATCC43071, read-out: MIC, single drug (mM in parentheses)): 0.6 mM
- MIC in combination EDTA:ROB (mM in parentheses) (E. coli ATCC 25922; E. coli ATCC 25922, EDTA component): 2.5 mM
- MIC in combination EDTA:ROB (E. coli ATCC 25922; E. coli ATCC 25922, concentration of the labelled component): 950 µg/mL
- MIC (E. coli ATCC 25922; ATCC25922, read-out: MIC, single drug): 3800 µg/mL
- MIC (E. coli ATCC 25922; ATCC25922, read-out: MIC, single drug (mM in parentheses)): 10 mM
- MIC in combination EDTA:ROB (mM in parentheses) (K. pneumoniae ATCC 13883; K. pneumoniae ATCC 13883, EDTA component): 10 mM
- MIC in combination EDTA:ROB (K. pneumoniae ATCC 13883; K. pneumoniae ATCC 13883, concentration of the labelled component): 3800 µg/mL
- MIC (K. pneumoniae ATCC 13883; ATCC13883, read-out: MIC, single drug): 11400 µg/mL
- MIC (K. pneumoniae ATCC 13883; ATCC13883, read-out: MIC, single drug (mM in parentheses)): 30 mM
- MIC in combination EDTA:ROB (mM in parentheses) (A. baumannii ATCC 19606; A. baumannii ATCC 19606, EDTA component): 0.5 mM
- MIC in combination EDTA:ROB (A. baumannii ATCC 19606; A. baumannii ATCC 19606, concentration of the labelled component): 190 µg/mL
- MIC (A. baumannii ATCC 19606; ATCC19606, read-out: MIC, single drug): 380 µg/mL
- MIC (A. baumannii ATCC 19606; ATCC19606, read-out: MIC, single drug (mM in parentheses)): 1 mM
- MIC in combination EDTA:ROB (mM in parentheses) (A. baumannii ATCC 12457; A. baumannii ATCC 12457, EDTA component): 0.25 mM
- MIC in combination EDTA:ROB (A. baumannii ATCC 12457; A. baumannii ATCC 12457, concentration of the labelled component): 95 µg/mL
- MIC (A. baumannii ATCC 12457; ATCC12457, read-out: MIC, single drug): 190 µg/mL
- MIC (A. baumannii ATCC 12457; ATCC12457, read-out: MIC, single drug (mM in parentheses)): 0.5 mM
Structure (SMILES): O=C(O)CN(CCN(CC(=O)O)CC(=O)O)CC(=O)O [EDTA, ethylenediaminetetraacetic acid]
- DRI EDTA:ROB (P. aeruginosa ATCC 27853; P. aeruginosa ATCC 27853, DRI of the labelled component): 2
- DRI EDTA:ROB (E. coli ATCC 11229; E. coli ATCC 11229, DRI of the labelled component): 4
- DRI EDTA:ROB ([1]; A. calcoaceticus human clinical isolate, DRI of the labelled component): 1
- DRI EDTA:ROB (P. mirabilis ATCC 43071; P. mirabilis ATCC 43071, DRI of the labelled component): 1
- DRI EDTA:ROB (E. coli ATCC 25922; E. coli ATCC 25922, DRI of the labelled component): 4
- DRI EDTA:ROB (K. pneumoniae ATCC 13883; K. pneumoniae ATCC 13883, DRI of the labelled component): 3
- DRI EDTA:ROB (A. baumannii ATCC 19606; A. baumannii ATCC 19606, DRI of the labelled component): 2
- DRI EDTA:ROB (A. baumannii ATCC 12457; A. baumannii ATCC 12457, DRI of the labelled component): 2
- IC50 (HaCaT cell line): 3.8 mM
- concentration with significant disruption of 24 h preformed biofilms [2]: 1 mM
- IC50 (MDCK cell line): 3.4 mM
